Experimental data taken from patent US11267826B2, “Penicillin-binding protein inhibitors” (priority 2017, dated 2022).

Legend:
[1] = test system: S. aureus ATCC 29213; assay: Broth microdilution MIC assay, S. aureus; type: cell-based; conditions: Staphylococcus aureus, ATCC29213; broth microdilution, 16-20 hours at 37° C.; read-out: S. aureus 29213 MIC
Protocol: (§1) To determine the ability of test compounds to potentiate the inhibition of the growth of bacterial strains, classic cell based broth microdilution MIC assays were employed. MIC assays are performed according to CLSI methods except where otherwise noted (CLSI, 2011 and CLSI, 2009). The reference strain S. aureus ATCC 29213 and the hyper-permeable E. coli 901C were used to determine the ability of the PBP compounds to inhibit bacterial growth. Briefly, cryo-preserved bacterial cultures of clinical strains are streaked for isolation on appropriate agar medium, in this case Mueller Hinton II agar. Following incubation to allow formation of colonies these plates are sealed with parafilm and stored refrigerated for up to two weeks. For preparation of assay inocula and to ensure low variability, at least 5 colonies are picked from the agar plates with an inoculating loop and aseptically transferred to a culture tube containing 3 mL of Mueller-Hinton Broth (supplemented with divalent cations to required levels based on Manufacturers' certification). The broth culture is grown for 3-5 hours at 37° C. with shaking at 200 rpm. Meanwhile, 2-fold serial dilutions of test compounds are conducted in a 96 well plate with a final volume of 75 μL per well at 2-fold the final desired concentration. After the dilution plates are set up the growing cultures are then diluted in a cuvette containing MH II broth and the optical density is measured at 600 nm. Inocula are diluted such that 75 μL of this culture in Mueller-Hinton Broth results in a starting bacterial concentration of 5×10^5 CFU/mL when added to the dilution plates. The plates are incubated 16-20 hours at 37° C. The MIC is read visually as the lowest concentration well with no bacterial growth.

[2] = test system: hyper-permeable E. coli 901C; assay: Broth microdilution MIC assay, hyper-permeable E. coli; type: cell-based; conditions: Escherichia coli, read-out: E. coli 901C MIC
Protocol: as §1

SMILES | MIC [1] [µg/mL] | MIC [2] [µg/mL]
CC(C)(O/N=C(\C(=O)N[C@H]1Cc2cccc(C(=O)O)c2OB1O)c1csc(N)n1)C(=O)N[C@@H](CCC(=O)O)C(=O)O [Example 77, (2-((((Z)-1-(2-aminothiazol-4-yl)-2-(((R)-8-carboxy-2-hydroxy-3,4-dihydro-2H-benzo[e][1,2]oxaborinin-3-yl)amino)-2-oxoethylidene)amino)oxy)-2-methylpropanoyl)-L-glutamic Acid] | > 128 | < 64
O=C(N[C@H]1Cc2cccc(C(=O)O)c2OB1O)/C(=N\O)c1csc(NCCc2ccncc2)n1 [Example 123, (R,Z)-2-hydroxy-3-(2-(hydroxyimino)-2-(2-((2-(pyridin-4-yl)ethyl)amino)thiazol-4-yl)acetamido)-3,4-dihydro-2H-benzo[e][1,2]oxaborinine-8-carboxylic Acid] | < 64 | > 128
Nc1nc(/C(=C\c2cccnc2)C(=O)N[C@H]2Cc3cccc(C(=O)O)c3OB2O)cs1 [Example 86, (R,E)-3-(2-(2-aminothiazol-4-yl)-3-(pyridin-3-yl)acrylamido)-2-hydroxy-3,4-dihydro-2H-benzo[e][1,2]oxaborinine-8-carboxylic Acid] | 64 to 128 | < 64
COc1cc2c(c(C(=O)O)c1)OB(O)[C@@H](NC(=O)/C(=N\OC(C)(C)C(=O)O)c1csc(N)n1)C2 [Example 79, (R,Z)-3-(2-(2-aminothiazol-4-yl)-2-(((2-carboxypropan-2-yl)oxy)imino)acetamido)-2-hydroxy-6-methoxy-3,4-dihydro-2H-benzo[e][1,2]oxaborinine-8-carboxylic Acid] | > 128 | < 64
Nc1nc(/C(=N/OCC(=O)O)C(=O)N[C@H]2Cc3cccc(C(=O)O)c3OB2O)cs1 [Example 18, (R,Z)-3-(2-(2-aminothiazol-4-yl)-2-((carboxymethoxy)imino)acetamido)-2-hydroxy-3,4-dihydro-2H-benzo[e][1,2]oxaborinine-8-carboxylic Acid] | > 128 | < 64
Nc1nc(C(=CCCC(=O)O)C(=O)N[C@H]2Cc3cccc(C(=O)O)c3OB2O)cs1 [Example 84, (R)-3-(2-(2-aminothiazol-4-yl)-5-carboxypent-2-enamido)-2-hydroxy-3,4-dihydro-2H-benzo[e][1,2]oxaborinine-8-carboxylic Acid] | > 128 | < 64
NCCNC(=O)CO/N=C(\C(=O)N[C@H]1Cc2cccc(C(=O)O)c2OB1O)c1csc(N)n1 [Example 54, (R,Z)-3-(2-((2-((2-aminoethyl)amino)-2-oxoethoxy)imino)-2-(2-aminothiazol-4-yl)acetamido)-2-hydroxy-3,4-dihydro-2H-benzo[e][1,2]oxaborinine-8-carboxylic Acid] | > 128 | < 64
O=C(N[C@H]1Cc2cccc(C(=O)O)c2OB1O)/C(=N\O)c1csc(NCCF)n1 [Example 101, (R,Z)-3-(2-(2-((2-fluoroethyl)amino)thiazol-4-yl)-2-(hydroxyimino)acetamido)-2-hydroxy-3,4-dihydro-2H-benzo[e][1,2]oxaborinine-8-carboxylic Acid] | > 128 | 64 to 128
Nc1cc(/C(=N\O)C(=O)N[C@H]2Cc3cccc(C(=O)O)c3OB2O)ccn1 [Example 15, (R,E)-3-(2-(2-aminopyridin-4-yl)-2-(hydroxyimino)acetamido)-2-hydroxy-3,4-dihydro-2H-benzo[e][1,2]oxaborinine-8-carboxylic Acid] | 64 to 128 | > 128
Nc1ncc(C(=NO)C(=O)N[C@H]2Cc3cccc(C(=O)O)c3OB2O)s1 (stereo in doubt) [Example 96, (R,E)-3-(2-(2-aminothiazol-5-yl)-2-(hydroxyimino)acetamido)-2-hydroxy-3,4-dihydro-2H-benzo[e][1,2]oxaborinine-8-carboxylic Acid] | 64 to 128 | > 128
O=C(N[C@H]1Cc2cccc(C(=O)O)c2OB1O)/C(=N\O)c1ccccc1 [Example 83, (R,Z)-2-hydroxy-3-(2-(hydroxyimino)-2-phenylacetamido)-3,4-dihydro-2H-benzo[e][1,2]oxaborinine-8-carboxylic Acid] | < 64 | > 128
Nc1nc(/C(=N/OCC(F)F)C(=O)N[C@H]2Cc3cccc(C(=O)O)c3OB2O)cs1 [Example 114, (R,Z)-3-(2-(2-aminothiazol-4-yl)-2-((2,2-difluoroethoxy)imino)acetamido)-2-hydroxy-3,4-dihydro-2H-benzo[e][1,2]oxaborinine-8-carboxylic Acid] | 64 to 128 | < 64
Nc1nc(/C(=N/OC2CCNCC2)C(=O)N[C@H]2Cc3cccc(C(=O)O)c3OB2O)cs1 [Example 51, (R,Z)-3-(2-(2-aminothiazol-4-yl)-2-((piperidin-4-yloxy)imino)acetamido)-2-hydroxy-3,4-dihydro-2H-benzo[e][1,2]oxaborinine-8-carboxylic Acid] | > 128 | 64 to 128
CC(C)CO/N=C(\C(=O)N[C@H]1Cc2cccc(C(=O)O)c2OB1O)c1csc(N)n1 [Example 100, (R,Z)-3-(2-(2-aminothiazol-4-yl)-2-(isobutoxyimino)acetamido)-2-hydroxy-3,4-dihydro-2H-benzo[e][1,2]oxaborinine-8-carboxylic Acid] | < 64 | < 64
O=C(N[C@H]1Cc2cccc(C(=O)O)c2OB1O)/C(=N/O)c1csc(NCCc2ccncc2)n1 [Example 124, (R,E)-2-hydroxy-3-(2-(hydroxyimino)-2-(2-((2-(pyridin-4-yl)ethyl)amino)thiazol-4-yl)acetamido)-3,4-dihydro-2H-benzo[e][1,2]oxaborinine-8-carboxylic Acid] | > 128 | > 128
Nc1nc(/C(=N/O)C(=O)N[C@H]2Cc3ccc(F)c(C(=O)O)c3OB2O)cs1 [Example 39, (R,Z)-3-(2-(2-aminothiazol-4-yl)-2-(hydroxyimino)acetamido)-7-fluoro-2-hydroxy-3,4-dihydro-2H-benzo[e][1,2]oxaborinine-8-carboxylic Acid] | < 64 | < 64
CNc1nc(/C(=N/O)C(=O)N[C@H]2Cc3cccc(C(=O)O)c3OB2O)cs1 [Example 106, (R,Z)-2-hydroxy-3-(2-(hydroxyimino)-2-(2-(methylamino)thiazol-4-yl)acetamido)-3,4-dihydro-2H-benzo[e][1,2]oxaborinine-8-carboxylic Acid] | > 128 | > 128
O=C(N[C@H]1Cc2cccc(C(=O)O)c2OB1O)/C(Cn1nccn1)=N\O [Example 127, (R,Z)-2-hydroxy-3-(2-(hydroxyimino)-3-(2H-1,2,3-triazol-2-yl)propanamido)-3,4-dihydro-2H-benzo[e][1,2]oxaborinine-8-carboxylic Acid] | > 128 | > 128
CS(=O)(=O)NCCO/N=C(\C(=O)N[C@H]1Cc2cccc(C(=O)O)c2OB1O)c1csc(N)n1 [Example 120, (R,Z)-3-(2-(2-aminothiazol-4-yl)-2-((2-(methylsulfonamido)ethoxy)imino)acetamido)-2-hydroxy-3,4-dihydro-2H-benzo[e][1,2]oxaborinine-8-carboxylic Acid] | > 128 | 64 to 128
O=C(N[C@H]1Cc2cccc(C(=O)O)c2OB1O)/C(=N\O)c1ccc2c(c1)CNC2 [Example 8, (R,Z)-2-hydroxy-3-(2-(hydroxyimino)-2-(isoindolin-5-yl)acetamido)-3,4-dihydro-2H-benzo[e][1,2]oxaborinine-8-carboxylic Acid] | < 64 | < 64
Nc1nc(/C(=N/O)C(=O)N[C@H]2Cc3ccc(O)c(C(=O)O)c3OB2O)cs1 [Example 21, (R,Z)-3-(2-(2-aminothiazol-4-yl)-2-(hydroxyimino)acetamido)-2,7-dihydroxy-3,4-dihydro-2H-benzo[e][1,2]oxaborinine-8-carboxylic Acid] | 64 to 128 | > 128
CC(C)(O/N=C(\C(=O)N[C@H]1Cc2cc(O)cc(C(=O)O)c2OB1O)c1csc(N)n1)C(=O)O [Example 80, (R,Z)-3-(2-(2-aminothiazol-4-yl)-2-(((2-carboxypropan-2-yl)oxy)imino)acetamido)-2,6-dihydroxy-3,4-dihydro-2H-benzo[e][1,2]oxaborinine-8-carboxylic Acid] | > 128 | < 64
Nc1nc(C(CC(=O)O)C(=O)N[C@H]2Cc3cccc(C(=O)O)c3OB2O)cs1 (mixture of isomers) [Example 99, (3R)-3-(2-(2-aminothiazol-4-yl)-3-carboxypropanamido)-2-hydroxy-3,4-dihydro-2H-benzo[e][1,2]oxaborinine-8-carboxylic Acid] | > 128 | 64 to 128
CC(=O)NCCO/N=C(\C(=O)N[C@H]1Cc2cccc(C(=O)O)c2OB1O)c1csc(N)n1 [Example 119, (R,Z)-3-(2-((2-acetamidoethoxy)imino)-2-(2-aminothiazol-4-yl)acetamido)-2-hydroxy-3,4-dihydro-2H-benzo[e][1,2]oxaborinine-8-carboxylic Acid] | > 128 | 64 to 128
